Measurements as given in patent US5942641A, “Fluorenone derivatives, process for preparing the same and central or peripheral nerve degeneration repair and protective agent” (Otsuka Pharmaceutical Co., Ltd., priority 1993, dated 1999).

How the values were obtained:
[1] = system: Nerve cells of the cerebral cortex; assay: Pharmacological test 1: neurite sprouting (NS) of cultured fetal rat cerebral cortex nerve cells, phase contrast microscopy versus control; type: cell-based; parameters: key: ++: extremely strong in comparison with the control; +: strong in comparison with the control; ±: same as the control; -: inferior to the control; conditions: 10 days after initiation of culture
Description: Nerve cells of the cerebral cortex were removed aseptically from a fetal rat (17 days-old) and cultured according to a Asou's method [Asou, H. Brain Res., 332; pages 355-357 (1985)]. After the meninx, blood vessel, etc. were removed from the cerebral hemisphere, they were put through a stainless steel mesh (pore size: 140μm). Then, the isolated cells were floated on a culture medium (Eagle's basal medium containing 10% fetal bovine serum and glucose of 1 g/l) and 1.5×10^6 cells were respectively seeded on a dish (diameter: 35 mm) coated with poly-L-lysine to initiate the culture (37° C., 3% CO2). After 24 hours, the culture medium was replaced by a culture medium containing a test compound and cultured for additional 9 days.
10 Days after initiation of the culture, neurite sprouting (NS) was evaluated under phase contrast microscopy by comparing with the control group.

[2] = system: mouse dorsal root ganglion cells; assay: Pharmacological Test 2: neurite outgrowth in primary culture of mouse dorsal root ganglion cells; type: cell-based, mouse (C57BL/6); parameters: key: +: positive; ±: false positive; -: negative; conditions: 7 days culture
Experimental: (The measurement of neurite outgrowth in primary culture of mouse dorsal root ganglion cells)
Preparation of cells was conducted according to a method of Horie et al. [H. Horie., FEBS, 296, 23 (1990)]. That is, C57BL/6 male mice aged 10 to 15 weeks were used. They were bleeded to death under ether anesthetization and the backbone from cervical vertebra to sacral vertebra was removed. The capsule of dorsal root ganglion of which ventral root and dorsal root had been cut was stripped in a Ham F12 medium (Flow laboratories) and then ganglia were treated with 0.25% collagenase (Worthington Biochemical Corporation) at 37° C. for 90 minutes. The medium was replaced by a Hank's physiological buffer solution containing no calcium and magnesium and cells were treated with 0.25% trypsin (Flow Laboratories) at room temperature for 20 minutes. A trypsin inhibitor (Sigma, 100 μg/ml) was added to terminate the enzyme reaction and trituration was conducted 20 times using a tapered Pasteur pipette. The medium was replaced again by the Ham F12 medium and cells were put through a nylon mesh (150 μm) to remove a cell mass which had not been separated. Cells were suspended in the Ham F12 medium containing a N1 additive [Bottenstein, J. E., Exp. Cell. Res., 125, 183 (1980)] (kanamycin of 60 μg/ml added).
A poly-1-lysine-coating cell disc as a culture medium which had been subjected to 10 μg/ml laminin (Koken Cell Gen) coating treatment at 37° C. for 3 hours was placed on a 24 well dish and nerve cells (5000 to 10000 cells/dish) were seeded. The test compound (concentration: 0.01 mol/l) was dissolved in dimethyl sulfoxide and diluted with a phosphate buffer solution to adjust to a final concentration, and then added to a culture solution. Cells were cultured in 5% CO2 -95% air phase at 37° C. for 7 days.
For the measurement of neurite outgrowth, the cell disc was washed with a phosphate buffer solution 7 days after initiation of the culture and immobilized with 4% paraformaldehyde at 4° C. for 24 hours, and then immune staining was conducted with Vecstatin ABC kit (Vector) using a neurofilament antibody (200 kD, manufactured by Boehringer Mannheim GmbH). The periphery of the cell disc was restrictively observed under microscopy, and the amount of neurofilament (whole length per well) was evaluated by comparing with the control well according to the following criteria: positive (+), false positive (±) and negative (-).

[3] = system: hyperoxidation reaction of lipid (microsome fraction); assay: Pharmacological test 3: antioxidation action, hyperoxidation reaction of lipid due to ascorbic acid induction in liver microsome fraction (TBA value); type: biochemical, Wister rat; conditions: 37° C., 15 minutes; 200 μM ascorbic acid, 20 μM ferrous sulfate; read-out: IC50 (antioxidation, 50% inhibition concentration)
Experimental: (The measurement of antioxidation action)
The antioxidation action was measured using the hyperoxidation reaction of lipid due to ascorbic acid induction [Shimada, O. and Yasuda, H. BBA489, 163-172 (1977)].
Microsome fraction was obtained from a lever of Wister rat by a Kato's method [J. Biochem., 59, 574 (1966)]. This fraction was added to a 60 mM potassium phosphate buffer solution (containing 45 mM potassium chloride, 200 μM ascorbic acid and 20 μM ferrous sulfate) in an amount of 1 mg/ml and the test compound (0.1% dimethyl sulfoxide) was added, and the mixture was incubated at 37° C. for 15 minutes. The same amount of 10% trichloroacetic acid was added and the resultant was centrifuged. A portion of the supernatant was collected and the amount of malondialdehyde due to thiobarbituric acid (TBA value) was measured [Klaassen, C. D. and Plaa, G. L. Biochem. Pharmacol., 18: 2019 (1969)]. The inhibition ratio was calculated by the following formula:
Inhibition ratio={1-(TBA value of specimen)/(TBA value of […]

C-GMP-PDE (type V) = target: T1, C-GMP-PDE (type V) (Homo sapiens, UniProt O76074); assay: Pharmacological test 4: C-GMP-PDE (type V) inhibition action; type: biochemical; conditions: FI fraction from human blood platelet
T1 construct: from tissue; host or cells: human blood platelets (healthy adult), DEAE-cellulose fraction FI
Experimental: (C-GMP-PDE (type V) inhibition action)
The separation and purification of PDE from a human blood platelet was conducted according to a method of Hidaka et al. [Hidaka, H. and Asano, I., Biochem. Biophys. Acta 429, 485-497 (1976)]. That is, a blood platelet derived from a healthy adult was washed with water, floated with a Tris buffer solution and centrifuged. Then, the supernatant thereof was applied to DEAE-cellulose and separated into three fractions, FI, FII and FIII due to concentration gradient of sodium acetate. By using FI having high affinity to C-GMP, the inhibition action of the test compound was examined. The influence of the drug on PDE was represented by the inhibition ratio to PDE activity in the absence of the drug.

## C=CCc1cc(C)c2c(c1O)C(=O)c1ccccc1-2 [Example 11]
[1]; Dose 10^-5 (mole)
  neurite sprouting (NS): +

## C=CCc1cc2c(cc1O)C(=O)c1c-2ccc(CC=C)c1O [Example 14]
[1]; Dose 10^-7 (mole)
  neurite sprouting (NS): ++

## C=CCc1cc2c(c(CC=C)c1O)C(=O)c1c(O)c(CC=C)cc(CC=C)c1-2 [Example 16]
[1]; Dose 10^-7 (mole)
  neurite sprouting (NS): +

## C=CCc1c(O)ccc2c1C(=O)c1ccccc1-2 [Example 17]
[2]; Dose 10^-6 (mole)
  Neurite outgrowth action: +
[1]; Dose 10^-5 (mole)
  neurite sprouting (NS): ++

## C=CCc1cc2c(cc1O)C(=O)c1ccccc1-2 [Example 18]
[2]; Dose 10^-6 (mole)
  Neurite outgrowth action: +
[1]; Dose 10^-5 (mole)
  neurite sprouting (NS): ++

## C=CCc1cc2c(c(CC=C)c1O)C(=O)c1ccccc1-2 [Example 19]
[2]; Dose 10^-7 (mole)
  Neurite outgrowth action: +
[1]; Dose 10^-5 (mole)
  neurite sprouting (NS): ++

## O=C1c2ccccc2-c2cc(O)c(O)cc21 [Example 20, 2,3-dihydroxyfluorenone]
[2]; Dose 10^-6 (mole)
  Neurite outgrowth action: +

## C=CCc1c(O)c(O)c(CC=C)c2c1C(=O)c1ccccc1-2 [Example 21, 1,4-diallyl-2,3-dihydroxyfluorenone]
[2]; Dose 10^-7 (mole)
  Neurite outgrowth action: +
[3]
  IC50: 100 nM
[1]; Dose 10^-7 (mole)
  neurite sprouting (NS): ++
C-GMP-PDE (type V)
  IC50: 14700 nM

## CCCc1c(O)c(O)c(CCC)c2c1C(=O)c1ccccc1-2 [Example 22, 1,4-di-n-propyl-2,3-dihydroxyfluorenone]
[2]; Dose 10^-7 (mole)
  Neurite outgrowth action: +

## O=C1c2cc(O)ccc2-c2c(O)cccc21 [Example 26]
[2]; Dose 10^-7 (mole)
  Neurite outgrowth action: +
[1]; Dose 10^-7 (mole)
  neurite sprouting (NS): +

## C=CCc1ccc2c(c1O)-c1ccc(O)c(CC=C)c1C2=O [Example 27, 1,6-Diallyl-2,5-dihydroxyfluorenone]
[2]; Dose 10^-7 (mole)
  Neurite outgrowth action: +
[3]
  IC50: 1600 nM
[1]; Dose 10^-5 (mole)
  neurite sprouting (NS): +
C-GMP-PDE (type V)
  IC50: 8700 nM

## C=CCc1ccc(O)c2c1C(=O)c1c-2ccc(O)c1CC=C [Example 28]
[1]; Dose 10^-5 (mole)
  neurite sprouting (NS): ++

## C=CCc1cc2c(cc1O)C(=O)c1ccc(CC=C)c(O)c1-2 [Example 29]
[2]; Dose 10^-7 (mole)
  Neurite outgrowth action: +

## C=CCc1cc2c(cc1O)C(=O)c1c(CC=C)ccc(O)c1-2 [Example 30]
[2]; Dose 10^-7 (mole)
  Neurite outgrowth action: +

## C=CCc1cc2c(c(CC=C)c1O)C(=O)c1c(CC=C)cc(CC=C)c(O)c1-2 [Example 31]
[2]; Dose 10^-7 (mole)
  Neurite outgrowth action: +
[3]
  IC50: 200 nM
[1]; Dose 10^-7 (mole)
  neurite sprouting (NS): +
C-GMP-PDE (type V)
  IC50: 400 nM

## CCCc1cc2c(c(CCC)c1O)C(=O)c1c(CCC)cc(CCC)c(O)c1-2 [Example 32]
[2]; Dose 3 × 10^-8 (mole)
  Neurite outgrowth action: +

## C=CCc1cc(Cl)c2c(c1O)-c1cc(Cl)c(O)c(CC=C)c1C2=O [Example 33]
[2]; Dose 10^-7 (mole)
  Neurite outgrowth action: +

## C=CCc1cc(Cl)c(O)c2c1C(=O)c1c-2cc(Cl)c(O)c1CC=C [Example 34]
[2]; Dose 10^-7 (mole)
  Neurite outgrowth action: +

## C=CCc1cc2c(cc1O)C(=O)c1cccc(O)c1-2 [Example 35]
[1]; Dose 10^-7 (mole)
  neurite sprouting (NS): +

## COc1cccc2c1-c1cc(C(C)C)c(O)cc1C2=O [Example 36]
[2]; Dose 10^-6 (mole)
  Neurite outgrowth action: +

## O=C1c2cc(O)ccc2-c2cc(O)ccc21 [Example 40]
[2]; Dose 10^-6 (mole)
  Neurite outgrowth action: +
[1]; Dose 10^-5 (mole)
  neurite sprouting (NS): ++

## C=CCc1c(O)ccc2c1C(=O)c1ccc(O)c(CC=C)c1-2 [Example 41]
[2]; Dose 10^-7 (mole)
  Neurite outgrowth action: +

## C=CCc1cc2c(cc1O)-c1cc(CC=C)c(O)cc1C2=O [Example 44]
[2]; Dose 10^-7 (mole)
  Neurite outgrowth action: +

## C=CCc1cc2c(c(CC=C)c1O)C(=O)c1cc(CC=C)c(O)c(CC=C)c1-2 [Example 45]
[2]; Dose 10^-7 (mole)
  Neurite outgrowth action: +
[1]; Dose 10^-7 (mole)
  neurite sprouting (NS): +

## C=CCc1c(O)ccc2c1C(=O)c1c-2ccc(O)c1CC=C [Example 48]
[2]; Dose 10^-7 (mole)
  Neurite outgrowth action: +
[1]; Dose 10^-6 (mole)
  neurite sprouting (NS): +

## C=CCc1cc2c(c(CC=C)c1O)C(=O)c1c-2cc(CC=C)c(O)c1CC=C [Example 50]
[2]; Dose 10^-7 (mole)
  Neurite outgrowth action: +

## CCCc1cc2c(c(CCC)c1O)C(=O)c1c-2cc(CCC)c(O)c1CCC [Example 53]
[2]; Dose 10^-7 (mole)
  Neurite outgrowth action: +

## CCCc1cc2c(c(Cl)c1O)C(=O)c1c-2cc(Cl)c(O)c1CCC [Example 54, 3,8-dichloro-1,6-di-n-propyl-2,7-dihydroxyfluorenone]
[2]; Dose 10^-7 (mole)
  Neurite outgrowth action: +

## C=CCc1cc2c(c(CC=C)c1O)-c1ccccc1C2=O [Example 60]
[2]; Dose 10^-6 (mole)
  Neurite outgrowth action: +
[1]; Dose 10^-7 (mole)
  neurite sprouting (NS): +

## C=CCc1ccc(O)c2c1C(=O)c1ccccc1-2 [Example 61]
[1]; Dose 10^-5 (mole)
  neurite sprouting (NS): ++

## C=CCc1ccc2c(c1O)-c1ccccc1C2=O [Example 62]
[2]; Dose 10^-6 (mole)
  Neurite outgrowth action: +
[1]; Dose 10^-6 (mole)
  neurite sprouting (NS): ++

## CSc1ccc(O)c2c1C(=O)c1ccccc1-2 [Example 63]
[2]; Dose 10^-6 (mole)
  Neurite outgrowth action: +

## C=CCc1cc(SC)c2c(c1O)-c1ccccc1C2=O [Example 64]
[2]; Dose 10^-6 (mole)
  Neurite outgrowth action: +

## C=CCc1cc2c(cc1OC(C)=O)C(=O)c1c-2ccc(OC(C)=O)c1CC=C [Example 106, 1,6-diallyl-2,7-diacetoxyfluorenone]
[2]; Dose 10^-7 (mole)
  Neurite outgrowth action: +

## Cc1cc2c(c(C)c1O)C(=O)c1ccc(C)c(O)c1-2 [Example 118, 1,3,6-trimethyl-2,5-dihydroxyfluorenone]
[2]; Dose 3 × 10^-7 (mole)
  Neurite outgrowth action: +

## Cc1cc2c(c(C)c1O)C(=O)c1ccc(CNc3ncccn3)c(O)c1-2 [Example 123]
[2]; Dose 10^-7 (mole)
  Neurite outgrowth action: +

## CCCc1ccc2c(c1O)-c1cc(CNc3ncccn3)c(O)c(CCC)c1C2=O [Example 127]
[2]; Dose 10^-7 (mole)
  Neurite outgrowth action: +

## CCCc1ccc2c(c1O)-c1cc(CNC(CC(C)C)C(=O)OC)c(O)c(CCC)c1C2=O (stereo not drawn) [Example 131]
[2]; Dose 10^-7 (mole)
  Neurite outgrowth action: +

## CCCc1ccc2c(c1O)-c1cc(CN3CCC[C@H]3C(=O)OC)c(O)c(CCC)c1C2=O [Example 132]
[2]; Dose 10^-7 (mole)
  Neurite outgrowth action: +

## CCCc1cc2c(c(CCC)c1OC(C)=O)C(=O)c1c(CCC)cc(CCC)c(OC(C)=O)c1-2 [Example 134]
[2]; Dose 3 × 10^-8 (mole)
  Neurite outgrowth action: +

## Cc1cc2c(c(C)c1O)C(=O)c1ccc(CSc3ccccc3)c(O)c1-2 [Example 136]
[2]; Dose 3 × 10^-7 (mole)
  Neurite outgrowth action: +

## COc1ccc(SCc2ccc3c(c2O)-c2cc(C)c(O)c(C)c2C3=O)cc1 [Example 141]
[2]; Dose 3 × 10^-8 (mole)
  Neurite outgrowth action: +

## Cc1cc2c(c(C)c1O)C(=O)c1ccc(CSC3CCCCC3)c(O)c1-2 [Example 142]
[2]; Dose 3 × 10^-8 (mole)
  Neurite outgrowth action: +

## CCCc1cc2c(c(CC(C)OCCOCCO)c1O)C(=O)c1c(CCC)cc(CCC)c(O)c1-2 (stereo not drawn) [Example 143]
[2]; Dose 10^-7 (mole)
  Neurite outgrowth action: +

## Cc1cc2c(c(C)c1O)C(=O)c1ccc(CC#N)c(O)c1-2 [Example 144]
[2]; Dose 10^-7 (mole)
  Neurite outgrowth action: +
